Assay results as given in US20100197797A1 (priority 2009, published 2010).

Tests used:
[1] = test system: fibromyalgia patients; test: Placebo-controlled trials in fibromyalgia patients (safety); format: in vivo, human; details: for patients with >15 mmHg increase in SBP at the end of the study / patients with DBP increases >10 mmHg at end of study: hypertensive at baseline; for patients with increases in ALT: mild elevations (1-3 times ULN); for patients who became hypertensive at the end of the study (SBP≧140 mmHg or DBP≧90 mmHg): non-hypertensive at baseline; for incidence of suicidal ideation: patients with a history of depression at treatment initiation; for patients who became hypertensive at the end of the study: pre-hypertension at baseline (SBP 120-139 mmHg); for mean weight loss: up to 3 months
Source text: The stated frequencies of adverse reactions represent the proportion of individuals who experienced, at least once, a treatment-emergent adverse reaction of the type listed. A reaction was considered treatment emergent if it occurred for the first time or worsened while receiving therapy following baseline evaluation.

[2] = test system: humans; test: Acute overdose in clinical trials; format: in vivo, human; details: up to 1000 mg, alone or in combination with other drugs
Source text: There is limited clinical experience with milnacipran hydrochloride overdose in humans.

[3] = test system: plasma proteins; test: Plasma protein binding; format: in vitro ADME
[4] = test system: fibromyalgia; test: Study 2, 3-month fibromyalgia efficacy study; format: in vivo, human
Source text: (§1) Enrolled patients met the American College of Rheumatology (ACR) criteria for fibromyalgia (a history of widespread pain for 3 months and pain present at 11 or more of the 18 specific tender point sites). […] Study 1 was six months in duration and Study 2 was three months in duration.
Patients were enrolled with a minimum mean baseline pain score of ≧40 mm on a 100-mm VAS ranging from 0 (“no pain”) to 100 (“worst possible pain”). The mean baseline pain score in this trial was 65.

[5] = test system: fibromyalgia; test: Study 1, 6-month fibromyalgia efficacy study; format: in vivo, human
Source text: as §1
Patients were enrolled with a minimum mean baseline pain score of ≧50 mm on a 100 mm visual analog scale (VAS) ranging from 0 (“no pain”) to 100 (“worst possible pain”). The mean baseline pain score in this trial was 69.

[6] = 3-month placebo-controlled trials
[7] = all milnacipran hydrochloride (n = 1557)
[8] = 100 mg and 200 mg daily, 3-month time point

## CCN(CC)C(=O)C1(c2ccccc2)CC1CN.Cl (racemic) [milnacipran hydrochloride, (±)-[1R(S),2S(R)]-2-(aminomethyl)-N,N-diethyl-1-phenylcyclopropanecarboxamide hydrochloride]
[1]; 100 mg/day
  patients who discontinued prematurely due to adverse reactions: 23%
  patients with increases in AST: 3%
  patients with increases in pulse≧20 bpm: 8%
  sustained increases in DBP (≧10 mmHg on 3 consecutive post-baseline visits): 13%
  sustained increases in SBP (≧15 mmHg on three consecutive post-baseline visits): 9%
  patients with >15 mmHg increase in SBP at the end of the study: 7%
  patients with DBP increases >10 mmHg at end of study: 8%
  patients with increases in ALT: 6%
  patients who became hypertensive at the end of the study (SBP≧140 mmHg or DBP≧90 mmHg): 19.5%
  incidence of suicidal ideation: 0%
  patients who became hypertensive at the end of the study: 14%
  mean weight loss: approximately 0.8 kg
[1]; 100 mg/day (n = 623)
  Adverse reaction incidence: Abdominal pain: 3%
  Adverse reaction incidence: Anxiety: 5%
  Adverse reaction incidence: Blood pressure increased: 3%
  Adverse reaction incidence: Chest discomfort: 2%
  Adverse reaction incidence: Chest pain: 3%
  Adverse reaction incidence: Chills: 1%
  Adverse reaction incidence: Constipation: 16%
  Adverse reaction incidence: Decreased appetite: 1%
  Adverse reaction incidence: Dizziness: 11%
  Adverse reaction incidence: Dry mouth: 5%
  Adverse reaction incidence: Dyspnea: 2%
  Adverse reaction incidence: Flushing: 2%
  Adverse reaction incidence: Headache: 19%
  Adverse reaction incidence: Heart rate increased: 5%
  Adverse reaction incidence: Hot flush: 11%
  Adverse reaction incidence: Hyperhidrosis: 8%
  Adverse reaction incidence: Hypertension: 7%
  Adverse reaction incidence: Hypoesthesia: 1%
  Adverse reaction incidence: Insomnia: 12%
  Adverse reaction incidence: Migraine: 6%
  Adverse reaction incidence: Nausea: 35%
  Adverse reaction incidence: Palpitations: 8%
  Adverse reaction incidence: Paresthesia: 2%
  Adverse reaction incidence: Pruritus: 3%
  Adverse reaction incidence: Rash: 3%
  Adverse reaction incidence: Tachycardia: 3%
  Adverse reaction incidence: Tension headache: 2%
  Adverse reaction incidence: Tremor: 2%
  Adverse reaction incidence: Upper respiratory tract infection: 7%
  Adverse reaction incidence: Vision blurred: 1%
  Adverse reaction incidence: Vomiting: 6%
[1]; 100 mg/day, one patient
  patients with increase in ALT greater than 5 times (not exceeding 10 times) the upper limit of normal: 0.2%
[1]; 200 mg/day
  patients who discontinued prematurely due to adverse reactions: 26%
  patients with increases in AST: 5%
  patients with increases in pulse≧20 bpm: 8%
  sustained increases in DBP (≧10 mmHg on 3 consecutive post-baseline visits): 10%
  sustained increases in SBP (≧15 mmHg on three consecutive post-baseline visits): 6%
  patients with >15 mmHg increase in SBP at the end of the study: 2%
  patients with DBP increases >10 mmHg at end of study: 6%
  patients with increases in ALT: 7%
  patients who became hypertensive at the end of the study (SBP≧140 mmHg or DBP≧90 mmHg): 16.6%
  incidence of suicidal ideation: 1.3%
  patients who became hypertensive at the end of the study: 14%
  mean weight loss: approximately 0.8 kg
[1]; 200 mg/day (n = 934)
  Adverse reaction incidence: Abdominal pain: 3%
  Adverse reaction incidence: Anxiety: 3%
  Adverse reaction incidence: Blood pressure increased: 3%
  Adverse reaction incidence: Chest discomfort: 1%
  Adverse reaction incidence: Chest pain: 2%
  Adverse reaction incidence: Chills: 2%
  Adverse reaction incidence: Constipation: 15%
  Adverse reaction incidence: Decreased appetite: 2%
  Adverse reaction incidence: Dizziness: 10%
  Adverse reaction incidence: Dry mouth: 5%
  Adverse reaction incidence: Dyspnea: 2%
  Adverse reaction incidence: Flushing: 3%
  Adverse reaction incidence: Headache: 17%
  Adverse reaction incidence: Heart rate increased: 6%
  Adverse reaction incidence: Hot flush: 12%
  Adverse reaction incidence: Hyperhidrosis: 9%
  Adverse reaction incidence: Hypertension: 4%
  Adverse reaction incidence: Hypoesthesia: 2%
  Adverse reaction incidence: Insomnia: 12%
  Adverse reaction incidence: Migraine: 4%
  Adverse reaction incidence: Nausea: 39%
  Adverse reaction incidence: Palpitations: 7%
  Adverse reaction incidence: Paresthesia: 3%
  Adverse reaction incidence: Pruritus: 2%
  Adverse reaction incidence: Rash: 4%
  Adverse reaction incidence: Tachycardia: 2%
  Adverse reaction incidence: Tension headache: 1%
  Adverse reaction incidence: Tremor: 2%
  Adverse reaction incidence: Upper respiratory tract infection: 6%
  Adverse reaction incidence: Vision blurred: 2%
  Adverse reaction incidence: Vomiting: 7%
[1]; [6]
  mean increase in diastolic blood pressure (DBP): up to 3.1 mm Hg
  mean increase in systolic blood pressure (SBP): up to 3.1 mm Hg
[1]; 100 vs 200 mg/day
  dose dependence of effect on heart rate: did not appear to increase with increasing dose
[1]; [7]
  Adverse reaction incidence: Abdominal pain: 3%
  Adverse reaction incidence: Anxiety: 4%
  Adverse reaction incidence: Blood pressure increased: 3%
  Adverse reaction incidence: Chest discomfort: 1%
  Adverse reaction incidence: Chest pain: 2%
  Adverse reaction incidence: Chills: 2%
  Adverse reaction incidence: Constipation: 16%
  Adverse reaction incidence: Decreased appetite: 2%
  Adverse reaction incidence: Dizziness: 10%
  Adverse reaction incidence: Dry mouth: 5%
  Adverse reaction incidence: Dyspnea: 2%
  Adverse reaction incidence: Flushing: 3%
  Adverse reaction incidence: Headache: 18%
  Adverse reaction incidence: Heart rate increased: 6%
  Adverse reaction incidence: Hot flush: 12%
  Adverse reaction incidence: Hyperhidrosis: 9%
  Adverse reaction incidence: Hypertension: 5%
  Adverse reaction incidence: Hypoesthesia: 1%
  Adverse reaction incidence: Insomnia: 12%
  Adverse reaction incidence: Migraine: 5%
  Adverse reaction incidence: Nausea: 37%
  Adverse reaction incidence: Palpitations: 7%
  Adverse reaction incidence: Paresthesia: 2%
  Adverse reaction incidence: Pruritus: 2%
  Adverse reaction incidence: Rash: 3%
  Adverse reaction incidence: Tachycardia: 2%
  Adverse reaction incidence: Tension headache: 1%
  Adverse reaction incidence: Tremor: 2%
  Adverse reaction incidence: Upper respiratory tract infection: 6%
  Adverse reaction incidence: Vision blurred: 2%
  Adverse reaction incidence: Vomiting: 7%
[1]; clinical trials
  elevated transaminases vs placebo: more patients treated with milnacipran hydrochloride developed elevated transaminases
  risk of mydriasis: increased risk of mydriasis
[1]; controlled fibromyalgia trials
  incidence of dysuria: 1%
[1]; each of dysuria, ejaculation disorder, erectile dysfunction, ejaculation failure, libido decreased, prostatitis, scrotal pain, testicular pain, testicular swelling, urinary hesitation, urinary retention, urethral pain, urine flow decreased, rate greater than placebo
  incidence of genitourinary adverse reactions in male patients: at least 2%
[1]; fibromyalgia clinical trials
  increases of bilirubin: not clinically significant
[1]; human, in vivo
  cases of ALT>3×ULN associated with bilirubin≧2×ULN: No case
  most common adverse reactions (incidence≧5% and twice placebo): constipation, hot flush, hyperhidrosis, vomiting, palpitations, heart rate increased, dry mouth, and hypertension
  most frequently occurring adverse reaction: nausea
[1]; short-term or longer-term (up to 1 year) fibromyalgia trials
  suicides: No suicides occurred
[1]; trials excluded current major depressive episode
  activation of mania or hypomania: No activation of mania or hypomania was reported
[2]
  outcome of acute ingestions: none being fatal
[3]
  plasma protein binding: 13%
[4]; [8]
  patients with at least 30% reduction in pain from baseline (VAS) and globally improved (PGIC) vs placebo: More patients
[4]; in vivo
  benefit of 200 mg/day vs 100 mg/day: did not confer greater benefit
[5]; [8]
  patients with at least 30% reduction in pain from baseline (VAS) and globally improved (PGIC) vs placebo: More patients
[5]; Studies 1 and 2
  proportion meeting composite response criteria: pain (VAS), physical function (SF-36 PCS), patient global assessment (PGIC), vs placebo: larger proportion
  proportion with simultaneous pain reduction of at least 30% (VAS) and PGIC much or very much improved, vs placebo: larger proportion
[5]; both studies, some patients globally much or very much improved, stable dose
  onset of decrease in pain: as early as week 1
[5]; in vivo
  benefit of 200 mg/day vs 100 mg/day: did not confer greater benefit
